Target: GLP-1R (Homo sapiens, UniProt P43220)
Assay: Agonist activity on GLP-1R, HTRF cAMP detection in stably transfected GLP-1R/HEK293 cells
Type: cell-based
Conditions: for EC50: 30 min incubation; for Max activity: relative to top concentration of reference GLP-1(7-37)
Description: Detection of Agonist Activity of the Test Compounds on GLP-1R
• 1) The test compound was dissolved in DMSO and diluted 4-fold with Bravo for a total of 10 concentration gradients (the starting concentration was 1 mM). […] HBSS (10 mL) pre-warmed at 37° C. was added, mixed gently, and centrifuged at 1000 rpm for 5 minutes. The supernatant was discarded and another 10 mL of […] was added and mixed gently. […] The plate was shaken to mix at 2000 rpm for 60 seconds. • 7) The cells in the 384-well plate were incubated in CO2 cell incubator at 37° C. for 30 min. • 8) 10 μL of HTRF cAMP detection solution was added to the 384-well plate, stick with sealing film, and incubated at room temperature for 1 hour. • 9) After 1 hour of incubation, the sealing film was removed. The plate was put into the EnVision microplate reader to read the values of OD665 nm and OD615 nm.

Sequence of GLP-1R (P43220 24-463): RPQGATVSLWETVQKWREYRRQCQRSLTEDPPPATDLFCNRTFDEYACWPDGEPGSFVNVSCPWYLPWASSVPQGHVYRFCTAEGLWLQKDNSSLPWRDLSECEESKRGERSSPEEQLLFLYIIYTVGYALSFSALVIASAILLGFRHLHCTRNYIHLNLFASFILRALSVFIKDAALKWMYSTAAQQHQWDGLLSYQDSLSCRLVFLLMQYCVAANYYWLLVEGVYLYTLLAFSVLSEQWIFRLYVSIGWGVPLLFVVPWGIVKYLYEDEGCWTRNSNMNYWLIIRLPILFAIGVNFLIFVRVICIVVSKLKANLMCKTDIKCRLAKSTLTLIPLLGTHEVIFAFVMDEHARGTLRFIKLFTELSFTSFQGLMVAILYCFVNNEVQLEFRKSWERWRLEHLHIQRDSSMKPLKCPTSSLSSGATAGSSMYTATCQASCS

Row | EC50 | Max activity | SMILES
1 | 0.088 nM | 116.8% | CCn1cncc1Cn1c(CN2CCC(Oc3cccc(COc4ccc(C#N)cc4F)n3)CC2)nc2ccc(C(=O)O)cc21 [Compound 1, 2-((4-((6-((4-cyano-2-fluorophenoxy)methyl)pyridin-2-yl)oxy)piperidin-1-yl)methyl)-1-((1-ethyl-1H-imidazol-5-yl)methyl)-1H-benzo[d]imidazole-6-carboxylic acid]
2 | 0.0529 nM | 98.6% | CCn1cncc1Cn1c(CN2CCC(Oc3cccc(COc4ccc(C#N)cc4F)n3)CC2)nc2c(F)cc(C(=O)O)cc21 [Compound 2, 2-((4-((6-((4-cyano-2-fluorophenoxy)methyl)pyridin-2-yl)oxy)piperidin-1-yl)methyl)-1-((1-ethyl-1H-imidazol-5-yl)methyl)-4-fluoro-1H-benzo[d]imidazole-6-carboxylic acid]
3 | 0.317 nM | 128.3% | CCn1cncc1Cn1c(CN2CCC(Oc3ccc(F)c(COc4ccc(C#N)cc4F)n3)CC2)nc2ccc(C(=O)O)cc21 [Compound 3, 2-((4-((6-((4-cyano-2-fluorophenoxy)methyl)-5-fluoropyridin-2-yl)oxy)piperidin-1-yl)methyl)-1-((1-ethyl-1H-imidazol-5-yl)methyl)-1H benzo[d]imidazole-6-carboxylic acid]
4 | 0.133 nM | 114.8% | CCn1cncc1Cn1c(CN2CCC(Oc3cccc(COc4ccc(C#N)cc4F)n3)CC2)nc2ccc(C(=O)O)nc21 [Compound 6, 2-((4-((6-((4-cyano-2-fluorophenoxy)methyl)pyridin-2-yl)oxy)piperidin-1-yl)methyl)-3-((1-ethyl-1H-imidazol-5-yl)methyl)-3H-imidazo[4,5-b]pyridine-5-carboxylic acid]
5 | 0.145 nM | 91.3% | CCn1cncc1Cn1c(CN2CCC(Oc3cccc(COc4ccc(Cl)cc4F)c3)CC2)nc2ccc(C(=O)O)cc21 [Compound 7, 2-((4-(3-((4-chloro-2-fluorophenoxy)methyl)phenoxy)piperidin-1-yl)methyl)-1-((1-ethyl-1H-imidazol-5-yl)methyl)-1H-benzo[d]imidazole-6-carboxylic acid]
6 | 0.114 nM | 99.4% | CCn1cncc1Cn1c(CN2CCC(Oc3cccc(COc4ccc(C#N)cc4F)c3)CC2)nc2ccc(C(=O)O)cc21 [Compound 13, 2-((4-(3-((4-cyano-2-fluorophenoxy)methyl)phenoxy)piperidin-1-yl)methyl)-1-((1-ethyl-1H-imidazol-5-yl)methyl)-1H-benzo[d]imidazole-6-carboxylic acid]
7 | 0.11 nM | 109.7% | CCn1cncc1Cn1c(CN2CCC(Oc3cccc(COc4ccc(Cl)cc4F)n3)CC2)nc2ccc(C(=O)O)cc21 [Compound 43, 2-((4-((6-((4-chloro-2-fluorophenoxy)methyl)pyridin-2-yl)oxy)piperidin-1-yl)methyl)-1-((1-ethyl-1H-imidazol-5-yl)methyl)-1H-benzo[d]imidazole-6-carboxylic acid]
8 | 0.455 nM | 112.0% | N#Cc1ccc(OCc2cccc(OC3CCN(Cc4nc5ccc(C(=O)O)nc5n4C[C@@H]4CCO4)CC3)n2)c(F)c1 [Compound 60, (S)-2-((4-((6-((4-cyano-2-fluorophenoxy)methyl)pyridin-2-yl)oxy)piperidin-1-yl)methyl)-3-(oxetan-2-ylmethyl)-3H-imidazo[4,5-b]pyridine-5-carboxylic acid]
9 | 1.09 nM | 106.4% | N#Cc1ccc(OCc2cccc(OC3CCN(Cc4nc5ccc(C(=O)O)cc5n4C[C@@H]4CCO4)CC3)c2)c(F)c1 [Compound 67, (S)-2-((4-(3-((4-cyano-2-fluorophenoxy)methyl)phenoxy)piperidin-1-yl)methyl)-1-(oxetan-2-ylmethyl)-1H-benzo[d]imidazole-6-carboxylic acid]
10 | 0.264 nM | 126.6% | N#CCC1(Cn2c(CN3CCC(Oc4cccc(COc5ccc(C#N)cc5F)n4)CC3)nc3ccc(C(=O)O)cc32)CC1 [Compound 133, 2-((4-((6-((4-cyano-2-fluorophenoxy)methyl)pyridin-2-yl)oxy)piperidin-1-yl)methyl)-1-((1-(cyanomethyl)cyclopropyl)methyl)-1H-benzo[d]imidazole-6-carboxylic acid]
11 | 0.133 nM | 117.3% | N#CCC1(Cn2c(CN3CCC(Oc4cccc(COc5ccc(C#N)cc5F)n4)CC3)nc3c(F)cc(C(=O)O)cc32)CC1 [Compound 134, 2-((4-((6-((4-cyano-2-fluorophenoxy)methyl)pyridin-2-yl)oxy)piperidin-1-yl)methyl)-1-((1-(cyanomethyl)cyclopropyl)methyl)-4-fluoro-1H-benzimidazole-6-carboxylic acid]
12 | 0.244 nM | 109.6% | N#CCC1(Cn2c(CN3CCC(Oc4ccc(F)c(COc5ccc(C#N)cc5F)n4)CC3)nc3ccc(C(=O)O)cc32)CC1 [Compound 135, 2-((4-((6-((4-cyano-2-fluorophenoxy)methyl)-5-fluoropyridin-2-yl)oxy)piperidin-1-yl)methyl)-1-((1-(cyanomethyl)cyclopropyl)methyl)-1H-benzo[d]imidazole-6-carboxylic acid]
13 | 0.669 nM | 125.0% | N#CCC1(Cn2c(CN3CCC(Oc4cccc(COc5ccc(C#N)cc5F)n4)CC3)nc3ccc(C(=O)O)nc32)CC1 [Compound 138, 2-((4-((6-((4-cyano-2-fluorophenoxy)methyl)pyridin-2-yl)oxy)piperidin-1-yl)methyl)-3-((1-(cyanomethyl)cyclopropyl)methyl)-3H-imidazo[4,5-b]pyridine-5-carboxylic acid]
14 | 1190 nM | 76.6% | N#Cc1ccc(OCc2cccc(COC3CCN(Cc4nc5ccc(C(=O)O)cc5n4C[C@@H]4CCO4)CC3)n2)c(F)c1 [Compound C1, (S)-2-((4-((6-((4-cyano-2-fluorophenoxy)methyl)pyridin-2-yl)methoxy)piperidin-1-yl)methyl)-1-(oxetan-2-ylmethyl)-1H-benzo[d]imidazole-6-carboxylic acid]
15 | 0.614 nM | 123.1% | CCn1cncc1Cn1c(CN2CCC(Oc3cccc(OCc4ccc(C#N)cc4F)n3)CC2)nc2ccc(/C=C/C(=O)O)cc21 [Compound C2, (E)-3-(2-((4-((6-((4-cyano-2-fluorobenzyl)oxy)pyridin-2-yl)oxy)piperidin-1-yl)methyl)-1-((1-ethyl-1H-imidazol-5-yl)methyl)-1H-benzo[d]imidazol-6-yl)acrylic acid]
16 | 0.278 nM | 122.3% | CCn1cncc1Cn1c(CN2CCC(Oc3cccc(COc4ccc(Br)cc4F)n3)CC2)nc2ccc(C(=O)O)cc21 [Compound C3, 2-((4-((6-((4-bromo-2-fluorophenoxy)methyl)pyridin-2-yl)oxy)piperidin-1-yl)methyl)-1-((1-ethyl-1H-imidazol-5-yl)methyl)-1H-benzo[d]imidazole-6-carboxylic acid]
17 | 0.56 nM | 147.9% | O=C(O)c1ccc2nc(CN3CCC(Oc4cccc(COc5ccc(Br)cc5F)n4)CC3)n(C[C@@H]3CCO3)c2c1 [Compound C4, (S)-2-((4-((6-((4-bromo-2-fluorophenoxy)methyl)pyridin-2-yl)oxy)piperidin-1-yl)methyl)-1-(oxetan-2-ylmethyl)-1H-benzo[d]imidazole-6-carboxylic acid]
18 | 2.41 nM | 112.6% | CC1(Cn2c(CN3CCC(Oc4cccc(COc5ccc(C#N)cc5F)n4)CC3)nc3ccc(C(=O)O)cc32)COC1 [Compound C5, 2-((4-((6-((4-cyano-2-fluorophenoxy)methyl)pyridin-2-yl)oxy)piperidin-1-yl)methyl)-1-((3-methyloxetan-3-yl)methyl)-1H-benzo[d]imidazole-6-carboxylic acid]
19 | 13.8 nM | 99.8% | Cc1ncc(Cn2c(CN3CCC(Oc4cccc(COc5ccc(C#N)cc5F)n4)CC3)nc3ccc(C(=O)O)cc32)n1C [Compound C6, 2-((4-((6-((4-cyano-2-fluorophenoxy)methyl)pyridin-2-yl)oxy)piperidin-1-yl)methyl)-1-((1,2-dimethyl-1H-imidazol-5-yl)methyl)-1H-benzo[d]imidazole-6-carboxylic acid]
20 | 23.5 nM | 90.1% | N#CCC1(Cn2c(CN3CCC(Oc4cccc(CSc5ccc(Cl)cc5F)n4)CC3)nc3ccc(C(=O)O)cc32)CC1 [Compound C7, 2-((4-((6-((4-chloro-2-fluorophenylthio)methyl)pyridin-2-yl)oxy)piperidin-1-yl)methyl)-1-((1-(cyanomethyl)cyclopropyl)methyl)-1H-benzo[d]imidazole-6-carboxylic acid]
21 | 25.6 nM | 117.4% | O=C(O)c1ccc2nc(CN3CCC(Oc4cccc(CSc5ccc(Cl)cc5F)n4)CC3)n(C[C@@H]3CCO3)c2c1 [Compound C8]
22 | 3.74 nM | 97.2% | CCn1cncc1Cn1c(CN2CCC(Oc3cccc(CSc4ccc(Cl)cc4F)n3)CC2)nc2ccc(C(=O)O)cc21 [Compound C9]
23 | 4.16 nM | 110.2% | N#Cc1ccc(SCc2cccc(OC3CCN(Cc4nc5ccc(C(=O)O)cc5n4C[C@@H]4CCO4)CC3)n2)c(F)c1 [Compound C10, (S)-2-((4-((6-((4-cyano-2-fluorophenylthio)methyl)pyridin-2-yl)oxy)piperidin-1-yl)methyl)-1-(oxetan-2-ylmethyl)-1H-benzo[d]imidazole-6-carboxylic acid]

From patent US20250282757A1, “ARYL ETHER-SUBSTITUTED HETEROCYCLIC COMPOUNDS AS GLP1R AGONISTS” (MINDRANK AI LTD., priority 2021, published 2025)
